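Growth conditions: 96-well plates. Treatment: test compound, 48 hours, 5 concentrations. Analysis: linear interpolation between bracketing concentrations; unreached endpoints set to highest concentration. The concentration for 50% growth inhibition is given as GI50. At the TGI there is no net growth.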

The first experiment relates to SNB-75 CNS. Nature of the experiment: NCI anticancer screen, dose series, 48 h.
Turning to `CCOC(=O)C(C)(C)Oc1ccc2c(-c3ccccc3)cc(=O)oc2c1`, the TGI amounted to 56.5 µM.
Still for that read-out and setting: the value for `CCCC1C(=O)CCc2c(OC)ccc(OC)c21` (stereo not given) was more than 100 µM.
On the same count and under the same terms, for `O=C(Nc1nc2ccc([N+](=O)[O-])cc2s1)C(=O)C(C1OC(=O)c2ccccc21)[N+](=O)[O-]` (stereo not given) the value was more than 100 µM.
As for `CCC[CH2][Sn]([CH2]CCC)([S]c1cccc2cccnc12)[S]c1cccc2cccnc12`, the GI50 was 0.234 µM and the TGI stood at 0.926 µM.

Another experiment has as its system U251 CNS. In words: NCI anticancer screen, dose series, 48 h.
Take `Cc1cnc(NCCCN(C)C)c2c1[nH]c1ccc3cc(O)ccc3c12`: the TGI was 1.02 µM.
On the same count and under the same terms, the value for `Cc1c(C(=O)CC(=O)C(=O)Nc2ccccc2C(F)(F)F)[n+](=O)c2ccccc2n1[O-]` was 49 µM; that for `Cc1cc(N(CCC#N)CCC#N)ccc1N=Nc1ccc(S(N)(=O)=O)cc1` was more than 100 µM.
Regarding `CCOC1Oc2ccccc2C(=O)/C1=C/Nc1ccc(C(C)=O)cc1` (stereo not given), the GI50 was 23.9 µM and the TGI stood at 67.5 µM.
On to `Cc1nc2c(ccc3ncccc32)[nH]1`, for which the TGI was more than 100 µM.
The same measure, in the same setting: the value for `C1=C2/CC[C@H](Sc3ccccc3)C2C2(CCCCC/1)OCCO2` (stereo not given in full) was more than 100 µM.
`COC1/C=C/OC2(C)Oc3c(C)c(O)c4c(O)c(c(/C=N/Nc5ccc([N+](=O)[O-])cc5[N+](=O)[O-])c(O)c4c3C2=O)NC(=O)C(C)=C/C=C/C(C)C(O)C(C)C(O)C(C)C(OC(C)=O)C1C` (stereo not given): the GI50 is 1.3 µM and the TGI was determined as 3.55 µM.
In turn, `O=C(CCc1nc(=S)[nH][nH]1)Nc1cc(Cl)c(Cl)cc1Cl` gave a TGI of more than 100 µM.
Compound `Nc1ccccc1S(=O)(=O)N(CC(=O)O)c1ccccc1` came in with a TGI of more than 100 µM.
`Cc1cc(NS(=O)(=O)c2ccc(Nc3c4ccccc4nc4c(C(=O)N5CCN(CCOS(C)(=O)=O)CC5)cccc34)cc2)no1` registered a TGI of more than 100 µM.
Take `C=CCO[C@H]1CO[C@H]2[C@@H]1OC[C@@H]2Oc1ccc(Nc2ccnc(Nc3ccc(O[C@H]4CO[C@H]5[C@@H]4OC[C@@H]5OCC=C)c(Cl)c3)n2)cc1Cl`: the GI50 was 1.85 µM and the TGI is 3.83 µM.
On to `CCN(CC)N=Nc1c(C(N)=O)n[nH]c1C`, for which the TGI is more than 100 µM.
Same read-out and setting: for `COc1cc2ccnc([C@@H](OC(=O)c3ccccc3)c3ccc(OC)c(OC)c3OC)c2cc1OC` the value was more than 100 µM; for `COc1ccc(CC2c3cc4c(cc3CCN2C)OCO4)c(C=O)c1OC` (stereo not given), more than 100 µM.
Still for that read-out and setting: for `CCn1c(C)nn2c(=O)c3ccccc3nc2c1=O` the value was more than 100 µM.
The same measure, in the same setting: the value for `O=C(O)CCNCCCNCCC(=O)O` was more than 100 µM.
Regarding `CC(=O)[CH-]C(=O)c1ccccc1.CC(=O)[CH-]C(=O)c1ccccc1.CN(C)c1ccc([O-])cc1.CN(C)c1ccc([O-])cc1.Cl.[Ti+4]`, the GI50 is more than 31.6 µM and the TGI was more than 31.6 µM.
Consider `Cc1nc2sccn2c1-c1csc(Nc2ccccc2Cl)n1`, for which the GI50 was 3.7 µM and the TGI turned out to be 24.1 µM.
For `Nc1nc(-n2c(-c3ccccc3)nc3c(Br)cc(Br)cc3c2=O)nnc1-c1cccc(Cl)c1Cl`, in that order: 6.87 µM and 27.1 µM.
In the case of `NC1=NCCC1(c1ccccc1)c1ccccn1` (stereo not given), the TGI is more than 100 µM.
Still for that read-out and setting: for `CCOC(=O)CCC1(C(=O)OCC)CCCCC1=O` (stereo not given) the value was more than 100 µM.
On the same count and under the same terms, for `COC(=O)c1ccccc1NC(=O)C(=O)Cc1nc2c3c(ccc2[nH]c1=O)C(=O)c1ccccc1C3=O` the value was 35.9 µM; for `CCOC(=O)C(C)(C)Oc1ccc2c(-c3ccccc3)cc(=O)oc2c1`, more than 100 µM.
`CCCC1C(=O)CCc2c(OC)ccc(OC)c21` (stereo not given): the TGI is more than 100 µM.
On to `O=C(Nc1nc2ccc([N+](=O)[O-])cc2s1)C(=O)C(C1OC(=O)c2ccccc21)[N+](=O)[O-]` (stereo not given), for which the TGI was more than 100 µM.
As for `CCC[CH2][Sn]([CH2]CCC)([S]c1cccc2cccnc12)[S]c1cccc2cccnc12`, the GI50 was 0.197 µM and the TGI amounted to 0.409 µM.
Take `COC(=O)C1(C(C)C)CCc2c(OC)ccc(OC)c2C1=O` (stereo not given): the TGI was more than 100 µM.

Another experiment concerns NCI-H522 lung. In words: NCI anticancer screen, dose series, 48 h.
In the case of `Cc1cnc(NCCCN(C)C)c2c1[nH]c1ccc3cc(O)ccc3c12`, the TGI was found to be 0.624 µM.
`CC1CCc2nc[nH]c(=O)c21` (stereo not given): the GI50 was more than 100 µM and the TGI was more than 100 µM.
`Cc1c(C(=O)CC(=O)C(=O)Nc2ccccc2C(F)(F)F)[n+](=O)c2ccccc2n1[O-]`: the TGI stood at 35.8 µM.
Still for that read-out and setting: the value for `Cc1cc(N(CCC#N)CCC#N)ccc1N=Nc1ccc(S(N)(=O)=O)cc1` was more than 100 µM.
Take `CCOC1Oc2ccccc2C(=O)/C1=C/Nc1ccc(C(C)=O)cc1` (stereo not given): the GI50 was 27.1 µM and the TGI was found to be 87.3 µM.
For `Cc1nc2c(ccc3ncccc32)[nH]1`, the TGI was more than 100 µM.
The same measure, in the same setting: the value for `O=C(CCc1nc(=S)[nH][nH]1)Nc1cc(Cl)c(Cl)cc1Cl` was more than 100 µM.
With `Nc1ccccc1S(=O)(=O)N(CC(=O)O)c1ccccc1`, the TGI was more than 100 µM.
With `C=CCO[C@H]1CO[C@H]2[C@@H]1OC[C@@H]2Oc1ccc(Nc2ccnc(Nc3ccc(O[C@H]4CO[C@H]5[C@@H]4OC[C@@H]5OCC=C)c(Cl)c3)n2)cc1Cl`, the GI50 was 1.96 µM and the TGI was 4.24 µM.
In the case of `CCN(CC)N=Nc1c(C(N)=O)n[nH]c1C`, the TGI is more than 100 µM.
Same read-out and setting: for `COc1cc2ccnc([C@@H](OC(=O)c3ccccc3)c3ccc(OC)c(OC)c3OC)c2cc1OC` the value was more than 100 µM; for `COc1ccc(CC2c3cc4c(cc3CCN2C)OCO4)c(C=O)c1OC` (stereo not given), more than 100 µM.
The same measure, in the same setting: the value for `O=C(O)CCNCCCNCCC(=O)O` was more than 100 µM.
In the case of `CC(=O)[CH-]C(=O)c1ccccc1.CC(=O)[CH-]C(=O)c1ccccc1.CN(C)c1ccc([O-])cc1.CN(C)c1ccc([O-])cc1.Cl.[Ti+4]`, the GI50 was 12.3 µM and the TGI amounted to 24 µM.
`Cc1nc2sccn2c1-c1csc(Nc2ccccc2Cl)n1`: the GI50 was 2.08 µM and the TGI was determined as 15.7 µM.
The like results for `Nc1nc(-n2c(-c3ccccc3)nc3c(Br)cc(Br)cc3c2=O)nnc1-c1cccc(Cl)c1Cl` were, in that order, 20.8 µM and more than 100 µM.
The compound `NC1=NCCC1(c1ccccc1)c1ccccn1` (stereo not given) displayed a TGI of more than 100 µM.
As for `CCOC(=O)CCC1(C(=O)OCC)CCCCC1=O` (stereo not given), the TGI was more than 100 µM.
For the compound `COC(=O)c1ccccc1NC(=O)C(=O)Cc1nc2c3c(ccc2[nH]c1=O)C(=O)c1ccccc1C3=O`, the TGI worked out at 35.7 µM.
On the same count and under the same terms, for `COC(=O)C1(C(C)C)CCc2c(OC)ccc(OC)c2C1=O` (stereo not given) the value was more than 100 µM.

For the origin of these results see PubChem BioAssay (NCI).
